Reference: ChEMBL document CHEMBL6103573, “Discovery of novel thienopyridine indole derivatives as inhibitors of tubulin polymerization targeting the colchicine-binding site with potent anticancer activities” (Eur J Med Chem, 2025)
Activity calls are given as the source filed them. The rule behind the calls is not given here.

Assays:
[1] = system: HCT-116; assay: Antiproliferative activity against human HCT-116 cells assessed as inhibition of cell proliferation incubated for 48 hrs by MTT assay; type: functional, cell-based; conditions: HCT-116, 48 h
[2] = system: HGC-27; assay: Antiproliferative activity against human HGC-27 cells assessed as survival rate at 2 nmol/L measured after 48 hrs by MTT assay relative to control; type: functional; conditions: read-out: Survival
[3] = system: HGC-27; assay: Induction of apoptosis in human HGC-27 cells assessed as cell contraction at 0.25 to 2.0 nmol/L incubated for 48 hrs by bright field microscopic analysis; type: functional, cell-based; conditions: dose 0.25-2 nmol/L
[4] = system: HGC-27; assay: Induction of apoptosis in human HGC-27 cells assessed as increase in total apoptotic rate at 2 nmol/L incubated for 48 hrs by Annexin V-FITC/propidium iodide staining based flow cytometry analysis relative to control; type: functional
[5] = Toxicity in female BALB/c-nu nude mouse xenografted with human MGC-803 cells assessed as change in kidney morphology at 5 mg/kg, po administrated every other day for 11 times and measured after 21 days by hematoxylin and eosin staining based analysis; type: organism-based; conditions: in vivo, 504 h, time 21 day

## CN(c1ccc2c(ccn2C)c1)c1nc(N2CCCC2)nc2sccc12
[1]
  IC50: 2.89 nM
[2]
  viability at 0.002 µM: 48%
[3]
  Activity: Active
[4]
  Activity: 14%
[5]
  Activity: Non-toxic
